From patent US20060160915A1, “Photocurable compositions” (priority 2003, published 2006)

Assay: Solubility properties in acrylate monomers
Assay type: physicochemical
Settings: 0.2 g in 2.5 g TMP(3EO)TA, 40° C.
Procedure: For determining the solubility properties in acrylate monomers, which are customarily used for the preparation of overprint varnishes and UV-curable inks, 0.2 g each of the compounds obtained according to Examples 1 and 2 is stirred into 2.5 g of the acrylate monomer in question. In dipropylene glycol diacrylate (DPGDA) both compounds have dissolved within a period of 15 minutes at room temperature. In ethoxylated trimethylolpropane triacrylate (TMP(3EO)TA) the compound according to Example 2 dissolves within a period of 10 minutes at 40° C., while the compound according to Example 1 dissolves after only 4 minutes' heating at 40° C.

Cc1cccc(C(=O)c2ccc(-c3ccccc3)cc2)c1 [Example 1, 3-methyl-4′-phenylbenzophenone]
time to dissolve in ethoxylated trimethylolpropane triacrylate (TMP(3EO)TA): 4 min

Cc1cc(C)c(C(=O)c2ccc(-c3ccccc3)cc2)c(C)c1 [Example 2, 2,4,6-trimethyl-4′-phenylbenzophenone]
time to dissolve in ethoxylated trimethylolpropane triacrylate (TMP(3EO)TA): ≤ 10 min
